# Assay results from patent publication US20100204202A1, “DRUG FOR ALLEVIATING MOTOR COMPLICATIONS OR PSYCHIATRIC SYMPTOMS OF PARKINSON'S DISEASE” (Asubio Pharma Co., Ltd., priority 2007, published 2010).
# Entries after “also recorded” stand apart in the source; their conditions may differ. Structures can show the parent of a compound that is named as a salt. Where two headings read alike, the source gives them in different places.
# Assays:
# [1] = target: T1, human dopamine D2S receptors (Homo sapiens, UniProt P14416); experiment: Agonist/antagonist assay, [35S]GTPgammaS binding, human dopamine D2S receptors; format: biochemical; details: for EC50 / Emax / IC50: Dopamine D2S; for antagonist activity (in words): human dopamine D2S receptors
# T1 construct: expressed in transfected cells; host or cells: CHO
# T1 sequence (P14416 1-414 isoform P14416-2): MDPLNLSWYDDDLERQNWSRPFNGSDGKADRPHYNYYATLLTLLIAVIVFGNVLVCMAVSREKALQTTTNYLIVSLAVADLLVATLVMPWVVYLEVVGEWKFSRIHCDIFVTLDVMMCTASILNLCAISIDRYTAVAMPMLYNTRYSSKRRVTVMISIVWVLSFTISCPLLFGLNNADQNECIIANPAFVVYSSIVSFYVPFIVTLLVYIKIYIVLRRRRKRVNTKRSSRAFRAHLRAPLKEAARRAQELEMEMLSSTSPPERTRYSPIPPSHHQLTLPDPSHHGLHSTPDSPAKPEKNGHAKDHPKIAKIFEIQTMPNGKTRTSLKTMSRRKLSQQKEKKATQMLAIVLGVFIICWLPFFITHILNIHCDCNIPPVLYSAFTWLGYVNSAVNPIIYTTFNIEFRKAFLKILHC
# Experimental: (§1) For the tests, membrane specimens prepared from Chinese hamster ovary (CHO-K1) cells expressing human serotonin 1A receptors, Chinese hamster ovary (CHO) cells expressing human dopamine D2L receptors, Chinese hamster ovary (CHO) cells expressing human dopamine D2S receptors and Chinese hamster ovary (CHO) cells expressing human dopamine D3 receptors were used. In the agonist assays, for the serotonin 1A receptors, [^35S] GTPγS (final concentration 0.1 nM), a GDP solution (final concentration 3 μM), the test sample solution and a membrane specimen were added to a 20 mM Hepes-NaOH buffer (pH 7.4) containing 100 mM NaCl, 3 mM MgCl2 and 10 μg/mL saponin and allowed to react at 25° C. for 30 minutes. Further, for the dopamine (D2L, D2S and D3) receptors, [^35S] GTPγS (i.e., final concentration 0.1 nM), a GDP solution (final concentration 3 μM), the test sample solution and a membrane specimen were added to a 20 mM Hepes-NaOH buffer (pH 7.4) containing 100 mM NaCl, 10 mM MgCl2, 1 mM DTT and 1 mM EDTA and allowed to react at 30° C. for 15 minutes (in the case of D2L receptors) or for 30 minutes (in the cases of D2S and D3 receptors). Further, in the antagonist assays, except for adding to the reaction solutions 10 μM 5-carboxamide tryptamine (5-CT) (in the case of serotonin 1A receptors), 3 μM dopamine (in the cases of D2L and D2S receptors), or 0.1 μM dopamine (in the case of D3 receptors), operations were performed similar to the agonistic tests. After the end of the reaction, the reaction solution was filtered with a cell harvester, the filtered filter paper was transferred to a measurement vial, a liquid scintillator was added, and the radioactivity of the [^35S] GTPγS remaining on the filter paper was determined by a liquid scintillation counter. The human serotonin 1A receptor and human dopamine (D2L, D2S, and D3) receptor agonist/antagonist activities of the test sample were expressed as the rates of increase, when making the increase in [^35S] GTPγS bonds due to 10 μM 5-CT (in the case of serotonin 1A receptors), 3 μM dopamine (in the cases of D2L and D2S receptors), or 0.1 μM dopamine (in the case of D3 receptors) 100%. From the bond increasing rate, a regression formula was used to calculate the 50% reaction concentration (EC50) and 50% inhibition concentration (IC50).
# [2] = target: T2, human dopamine D3 receptors (Homo sapiens, UniProt P35462); experiment: Agonist/antagonist assay, [35S]GTPgammaS binding, human dopamine D3 receptors; format: biochemical; details: for agonist activity (in words) / antagonist activity (in words): human dopamine D3 receptors
# T2 construct: expressed in transfected cells; host or cells: CHO
# T2 sequence (P35462 whole entry): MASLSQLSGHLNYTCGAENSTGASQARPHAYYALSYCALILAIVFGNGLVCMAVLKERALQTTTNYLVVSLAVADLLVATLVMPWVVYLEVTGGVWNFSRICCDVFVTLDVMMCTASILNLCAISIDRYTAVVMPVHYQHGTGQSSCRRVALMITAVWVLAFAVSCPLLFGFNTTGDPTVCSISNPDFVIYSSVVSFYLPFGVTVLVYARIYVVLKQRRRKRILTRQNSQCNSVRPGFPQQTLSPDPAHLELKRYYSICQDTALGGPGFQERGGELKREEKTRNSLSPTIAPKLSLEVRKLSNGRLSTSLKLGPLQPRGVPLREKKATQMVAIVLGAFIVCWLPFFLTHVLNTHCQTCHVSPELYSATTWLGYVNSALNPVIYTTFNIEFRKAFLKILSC
# Experimental: as §1
# [3] = target: T3, human serotonin 1A receptors (Homo sapiens, UniProt P08908); experiment: Binding affinity test on human serotonin 1A receptors ([3H]8-OH-DPAT, CHO-K1 membranes); details: for Ki: Serotonin 1A; for binding affinity (in words): human serotonin 1A receptors
# T3 construct: expressed in transfected cells; host or cells: CHO-K1
# T3 sequence (P08908 1-422): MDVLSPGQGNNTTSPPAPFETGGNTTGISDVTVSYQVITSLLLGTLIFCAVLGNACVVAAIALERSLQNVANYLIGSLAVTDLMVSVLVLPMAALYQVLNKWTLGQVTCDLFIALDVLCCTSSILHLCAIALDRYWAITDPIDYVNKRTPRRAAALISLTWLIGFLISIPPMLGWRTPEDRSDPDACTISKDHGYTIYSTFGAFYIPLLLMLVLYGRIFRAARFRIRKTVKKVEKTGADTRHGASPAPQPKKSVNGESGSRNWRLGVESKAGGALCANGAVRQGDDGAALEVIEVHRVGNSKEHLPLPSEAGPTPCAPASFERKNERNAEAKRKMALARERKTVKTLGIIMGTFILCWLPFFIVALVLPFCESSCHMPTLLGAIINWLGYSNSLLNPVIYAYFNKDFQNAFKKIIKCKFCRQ
# Experimental: For the test, membrane specimens prepared from Chinese hamster ovary (CHO-K1) cells expressing human serotonin 1A receptors were used. To a 50 mM Tris-HCl buffer (pH 7.4) including 5 mM CaCl2, 0.1% ascorbic acid, and 10 μg/mL saponin, [^3H] […] The reaction solution was allowed to react at 25° C. for 60 minutes, then the reaction solution was filtered with a cell harvester, the filtered filter paper was transferred to a measurement vial, a liquid scintillator was added and the receptor bond radioactivity remaining on the filter paper was determined by a liquid scintillation counter. The nonspecific bonds were defined as the amount of bonds in the presence of 10 μM serotonin.
# (§2) The following formula was used to calculate the binding inhibition rate: […]
# (§3) Furthermore, the inhibition constant (Ki) was calculated.
# [4] = target: T4, human dopamine D2L receptors (Homo sapiens, UniProt P14416); experiment: Binding affinity test on human dopamine D2L receptors ([3H]spiperone, CHO membranes); details: for Ki: Dopamine D2L; for binding affinity (in words): human dopamine D2L receptors
# T4 construct: expressed in transfected cells; host or cells: CHO
# T4 sequence (P14416 whole entry): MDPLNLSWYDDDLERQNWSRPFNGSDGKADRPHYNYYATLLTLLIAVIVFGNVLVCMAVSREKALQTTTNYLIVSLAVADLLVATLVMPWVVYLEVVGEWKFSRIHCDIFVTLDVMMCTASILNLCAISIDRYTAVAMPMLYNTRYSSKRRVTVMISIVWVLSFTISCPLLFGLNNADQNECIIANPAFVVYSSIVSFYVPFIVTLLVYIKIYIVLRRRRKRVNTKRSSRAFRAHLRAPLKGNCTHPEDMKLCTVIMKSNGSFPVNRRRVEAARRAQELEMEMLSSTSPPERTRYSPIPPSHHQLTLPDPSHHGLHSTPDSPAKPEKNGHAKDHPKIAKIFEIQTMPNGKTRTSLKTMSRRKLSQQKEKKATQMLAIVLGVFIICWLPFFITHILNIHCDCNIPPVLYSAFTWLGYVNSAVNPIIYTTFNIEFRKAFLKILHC
# Experimental: For the test, membrane specimens prepared from Chinese hamster ovary (CHO) cells expressing human dopamine D2L receptors were used. To a 50 mM Tris-HCl (pH 7.4) buffer containing 1.4 mM ascorbic acid, 0.001% BSA, and 150 mM NaCl, [^3H] spiperone (final concentration 0.16 nM), the test sample solution and a membrane specimen were added. The reaction solution was allowed to react at 25° C. for 2 hours, then the reaction solution was filtered with a cell harvester, the filtered filter paper was transferred to a measurement vial, a liquid scintillator was added and the receptor bond radioactivity remaining on the filter paper was determined by a liquid scintillation counter. The nonspecific bonds were defined as the amount of bonds in the presence of 10 μM haloperidol.
# The following formula was used to calculate the binding inhibition rate:
# [amount of [^3H] spiperone bonds in the presence of 10 μM haloperidol]}/{[amount of [^3H] spiperone bonds in the absence of test sample]−[amount of [^3H] spiperone bonds in the presence of 10 μM haloperidol]}
# From the binding inhibition rate, a regression formula was used to calculate the 50% inhibition concentration. Furthermore, the inhibition constant (Ki) was calculated.
# [5] = target: T2, human dopamine D3 receptors; experiment: Binding affinity test on human dopamine D3 receptors ([3H]spiperone, CHO membranes); details: for binding affinity (in words): human dopamine D3 receptors
# Experimental: For the test, membrane specimens prepared from Chinese hamster ovary (CHO) cells expressing human dopamine D3 receptors were used. To a 50 mM Tris-HCl buffer (pH 7.4) containing 1.4 mM ascorbic acid, 0.001% BSA, and 150 mM NaCl, [^3H] spiperone (final concentration 0.7 nM), the test sample solution and a membrane specimens were added. The reaction solution was allowed to react at 37° C. for 2 hours, then the reaction solution was filtered with a cell harvester, the filtered filter paper was transferred to a measurement vial, a liquid scintillator was added and the receptor bond radioactivity remaining on the filter paper was determined by a liquid scintillation counter.
# as §2, §3
# [6] = 3 μM dopamine = 100%, read-out: Agonist assay Emax
# [7] = with 3 μM dopamine, read-out: Antagonist assay Emax
# [8] = Dopamine D3, 0.1 μM dopamine = 100%, read-out: Agonist assay Emax
# [9] = Dopamine D3, read-out: Agonist assay EC50
# [10] = Dopamine D3, with 0.1 μM dopamine, read-out: Antagonist assay Emax
# [11] = Dopamine D3, with 0.1 μM dopamine, read-out: Antagonist assay IC50
SMILES,EC50 [1],"Emax [1, 6]",IC50 ([1]; with 3 μM dopamine),"Emax [1, 7]",antagonist activity (in words) [1],"Emax [2, 8]","EC50 [2, 9]","Emax [2, 10]","IC50 [2, 11]",agonist activity (in words) [2],antagonist activity (in words) [2],Ki [3],binding affinity (in words) [3],Ki [4],"Ki ([5]; Dopamine D3, read-out: Ki)",binding affinity (in words) [4],binding affinity (in words) [5],also measured
"O=C1c2ccccc2OC=C(Cl)N1CCCCN1CC=C(c2ccccn2)CC1 [SUN N4057, 3-chloro-4,5-dihydro-4-{4-[4-(2-pyridyl)-1,2,3,6-tetrahydropyridin-1-yl]butyl}-1,4-benzoxazepin-5-one.dihydrochloride-dihydrate]",> 500 nM,41%,> 500 nM,25%,does not have an antagonist action,77%,2.12 nM,13%,> 500 nM,strong agonist activity; also recorded: has an agonist action,no antagonist activity was exhibited,0.0249 nM,particularly strong binding affinity,161 nM,42.8 nM,–,–,–
"Cl.Cl.Fc1ccc(-c2cncc(CNC[C@H]3CCc4ccccc4O3)c2)cc1 [Sarizotan, 1-[(2R)-3,4-dihydro-2H-chromen-2-yl]-N-{[5-(4-fluorophenyl)pyridin-3-yl]methyl}methanamine dihydrochloride]",> 500 nM,5%,66.7 nM,74%,antagonist activity,–,–,–,–,did not exhibit an agonist activity,weak antagonist activity,0.0293 nM,particularly strong binding affinity,3.29 nM,–,comparatively strong binding affinity,comparatively strong binding affinity,EC50 [2]: > 500 nM; IC50 [2]: 181 nM; Emax ([2]; read-out: Agonist assay Emax): 14%; Emax ([2]; read-out: Antagonist assay Emax): 65%; Ki [5]: 3.48 nM
"Cl.Cl.O=c1[nH]c2cccc(C3CCCN(Cc4cncc(-c5ccc(F)cc5)c4)C3)c2o1 (stereo not drawn) [7-(1-{[5-(4-fluorophenyl)pyridin-3-yl]methyl}piperidin-3-yl)-1,3-benzoxazol-2(3H)-one dihydrochloride]",> 500 nM,27%,17.9 nM,69%,antagonist activity,69%,1.4 nM,22%,> 500 nM,strong agonist activity,no antagonist activity was exhibited,2.67 nM,–,5.42 nM,9.07 nM,comparatively strong binding affinity,comparatively strong binding affinity,–
